# Laboratory results taken from patent publication US9151757B2, “Detecting antigen responsive cells in a sample” (Stichting Sanquin Bloedvoorziening, priority 2008, dated 2015).
# Test system: CD8+ T cells in PBMCs
# Assay: Combinatorial coding MHC multimer flow cytometry of enriched, in vitro expanded PBMCs
# Format: cell-based, human
# Details: enriched PBMCs from 27 HLA-A3 positive melanoma patients, after MACS enrichment and short term in vitro expansion
row,Sequence,CD8+ T cell responses against peptide detected by dual color-encoded pMHC multimer staining
1,"GTYEGLLRR (listed as Homo sapiens) [Tyrp2 301-309, unknown HLA-A3 associated T cell antigen]",identification of the unknown HLA-A3 associated T cells antigens
2,HAYIQSLLK (listed as Homo sapiens),CD8^+ T cell responses were observed
3,QLRALDGGNK (listed as Homo sapiens),CD8^+ T cell responses were observed
4,RMYNMVPFF (listed as Homo sapiens),CD8^+ T cell responses were observed
5,SLYRDPLPR (listed as Homo sapiens),CD8^+ T cell responses were observed
